{"source": "patent US20110281852A1", "about": "(priority 2010, published 2011)", "type_in_all_cases": "cell-based, mouse", "key": {"C/EBPα": {"test_system": "C/EBPα", "test": "Real-time RT-PCR, C/EBPα mRNA in 3T3-L1", "details": "8 days", "from_the_text": "(§1) Realtime RT-PCR: Real-time reverse transcriptase polymerase chain reaction (RT-PCR) analysis was used to measure mRNA expression of genes SREBP-1, PPARγ, C/EBPα, low density lipoprotein receptor (LDLR), Adiponectin, and fatty acid synthase (FAS) under the control of β-actin. Briefly, total RNA was isolated from 3T3-L1 cells following treatment for 8 days with Trizol reagent (Invitrogen, Carlsbad, Calif., USA) according to the manufacturer's instruction. RNA was quantified using absorption of light at 260 nm, and sample purity was checked by OD 260 nm/280 nm. 0.8 μg of total RNA from each sample was used for reverse transcription reaction using the TaqMan Reverse Transcription Reagents (Applied Biosystems, Foster City, Calif., USA) according to the manufacturers' instructions. PCR was done using the SYBR green Master Mix (Applied Biosystems, Foster City, Calif., USA) according to the manufacturers' instructions. The temperature cycling conditions of amplification were as follows: an initial step of denaturation at 95° C. for 10 min, 40 cycles of denaturation at 95° C. for 30 s, annealing at 55° C. for 30 s, and elongation at 72° C. for 30 s. Realtime RT-PCR was performed using Mx3000P Realtime Thermocyclers (Statagene, La Jolla, Calif., USA). The relative mRNA levels of these genes were calculated by 2-delta delta CT method and normalized with control groups."}, "SREBP-1": {"test_system": "SREBP-1", "test": "Real-time RT-PCR, SREBP-1 mRNA in 3T3-L1", "details": "8 days", "from_the_text": "as §1"}, "3T3-L1 cells": {"test_system": "3T3-L1 cells", "test": "Oil-Red-O staining and quantification, clozapine/risperidone induced adipogenesis in 3T3-L1 (Example 2)", "details": "8 μM berberine, 8 days", "method": "Detailed protocol was described as our previous report (Hu et al., Phytomedicine (2009) 16(9):864-873).\nOil-Red-O staining and quantification: Oil-Red-O Staining and its quantification were performed as previously reported (Liu et al., Sinica (2004) 25:1052-1057). Briefly, medium was removed and cells were washed with PBS twice, fixed with 3.7% formalin at room temperature for 30 min, then rinsed with pure water, added 60% isopropanol and incubated for 5 minutes, then moved out isopropanol and stained cells with diluted Oil-Red-O solution (Oil-Red-O store solution (3 mg/ml in pure isopropanol): water=3:2) at room temperature for 10 min. Then the diluted Oil-Red-O solution was removed and cells were washed 3 times with pure water. Images were obtained using an Olympus IX70 inverted microscope equipped for phase-contrast microscopy (Olympus, Tokyo, Japan). After staining, the cells were washed twice with 70% ethanol to remove excess stain. Stained oil droplets in the cells were dissolved in isopropanol containing 4% Nonidet-P40 (Fisher Scientific, Pittsburgh, Pa., USA) shaking in 37° C. at speed 100 rpm for 1 hour, and OD values were measured at an absorbance of 490 nm and then normalized with control group."}, "[1]": {"details": "8 μM berberine + 15 μM clozapine"}, "[2]": {"details": "8 μM berberine + 50 μM risperidone"}}}
{"compound": "COc1ccc2cc3[n+](cc2c1OC)CCc1cc2c(cc1-3)OCO2.[Cl-]", "note": "[berberine, Berberine (Chloride Form)]", "values": [{"measurement": "decrease of C/EBPα mRNA expression vs clozapine treated group", "setting": "C/EBPα; [1]", "value": 94.7, "unit": "%"}, {"measurement": "decrease of C/EBPα mRNA expression vs risperidone treated group", "setting": "C/EBPα; [2]", "value": 96.4, "unit": "%"}, {"measurement": "decrease of SREBP-1 mRNA expression vs clozapine treated group", "setting": "SREBP-1; [1]", "value": 68.9, "unit": "%"}, {"measurement": "decrease of SREBP-1 mRNA expression vs risperidone treated group", "setting": "SREBP-1; [2]", "value": 80.9, "unit": "%"}, {"measurement": "reduction in lipid content vs no berberine treated group", "setting": "3T3-L1 cells; 15 μM clozapine group", "value": 78.5, "unit": "%"}, {"measurement": "reduction in lipid content vs no berberine treated group", "setting": "3T3-L1 cells; 25 μM risperidone group", "value": 78.7, "unit": "%"}, {"measurement": "reduction in lipid content vs no berberine treated group", "setting": "3T3-L1 cells; 30 μM clozapine group", "value": 73.2, "unit": "%"}, {"measurement": "reduction in lipid content vs no berberine treated group", "setting": "3T3-L1 cells; 50 μM risperidone group", "value": 81, "unit": "%"}, {"measurement": "reduction in lipid content vs no berberine treated group", "setting": "3T3-L1 cells; control group (clozapine series)", "value": 70, "unit": "%"}, {"measurement": "reduction in lipid content vs no berberine treated group", "setting": "3T3-L1 cells; control group (risperidone series)", "value": 72, "unit": "%"}]}
